Here are results for one compound from publication doi:10.1101/2023.02.27.530254, “Large library docking for cannabinoid-1 receptor agonists with reduced side effects” (bioRxiv, 2024).

For the series, the system named is C56BL/6 mice. The experiment in a line: Conditioned place preference. As to conditions: mouse, in vivo. Here is the method: To determine if ‘4042 was inherently rewarding or aversive we used the conditioned place paradigm as described. Briefly, mice were first habituated to the test apparatus, twice, and their preference for each chamber recorded for 30 minutes (Pretest). Two conditioning days followed in which mice received the vehicle control or the compound, and 30 minutes later restricted for 30 minutes in the preferred or non-preferred chamber, respectively. On day 5 (Test day), mice were allowed to roam freely between the 3 chambers of the apparatus and their preference for each chamber recorded for 30 minutes. To calculate the CPP score, we subtracted the time spent in each chamber of the box on the Pretest day from that of the Test day (CPP score = Test - Pretest).

For the compound `CN1CC[C@]23c4c5ccc(O)c4O[C@H]2[C@@H](O)C=C[C@H]3[C@H]1C5` [morphine, reference compound], the conditioned place preference result is “significantly increased their preference”.
